Data reported in patent US7893077B2, “Bisaryl-sulfonamides” (Amgen Inc., priority 2004, dated 2011).

What follows are compounds tested against T1, PPARγ (Homo sapiens, UniProt P37231) (assay: PPARγ ligand binding assay utilizing [3H]-BRL 49653 as the radioligand (filtration)). Details: concentration required to reduce by 50% the specific binding of [3H]-BRL 49653.
T1 construct: made in house
T1 sequence (P37231 1-505): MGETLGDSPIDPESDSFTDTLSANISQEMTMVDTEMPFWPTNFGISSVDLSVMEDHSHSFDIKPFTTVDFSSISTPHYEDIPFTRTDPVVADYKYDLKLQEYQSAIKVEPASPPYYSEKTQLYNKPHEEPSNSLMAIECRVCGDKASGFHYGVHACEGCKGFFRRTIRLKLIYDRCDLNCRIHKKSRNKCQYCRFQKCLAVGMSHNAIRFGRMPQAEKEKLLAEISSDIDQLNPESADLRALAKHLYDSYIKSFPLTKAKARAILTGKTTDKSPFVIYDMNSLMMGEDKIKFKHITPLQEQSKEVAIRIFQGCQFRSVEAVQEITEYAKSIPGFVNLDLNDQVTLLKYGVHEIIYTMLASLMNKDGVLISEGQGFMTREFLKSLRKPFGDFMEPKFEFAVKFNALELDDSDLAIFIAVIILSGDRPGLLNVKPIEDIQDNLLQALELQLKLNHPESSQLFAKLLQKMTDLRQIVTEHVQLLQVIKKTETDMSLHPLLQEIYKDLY
Outline: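 Displacement of 10 nM [3H]-BRL 49653 from PPARγ-GST fusion protein in Tris-HCl pH 8.0 buffer with KCl, DTT, BSA and NP-40, 15 min incubation, then glutathione-bead capture for 1 h. Bound radioactivity counted after filtration washes; IC50 is concentration giving 50% loss of specific binding, reported in ranges.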

| SMILES | IC50 [nM] |
| --- | --- |
| CCCCc1nc(NS(=O)(=O)c2ccc(Cl)cc2)ncc1Sc1ccc(S(=O)(=O)N2CCCCC2)cc1 [Compound 44, N-{4-Butyl-5-[4-(piperidine-1-sulfonyl)-phenylsulfanyl]-pyrimidin-2-yl}-4-chloro-benzenesulfonamide] | < 1000 |
| Cc1cc(NS(=O)(=O)c2ccc(C(F)(F)F)cc2Cl)ncc1Sc1ccc(S(=O)(=O)N2CCCCC2)cc1 [Compound 64, 2-Chloro-N-{4-methyl-5-[4-(piperidine-1-sulfonyl) -phenylsulfanyl]-pyridin-2-yl}-4-trifluoromethyl-benzenesulfonamide] | < 1000 |
| CN(C)c1nc(NS(=O)(=O)c2ccc(Cl)cc2Cl)ncc1Sc1ccc2ccccc2c1 [Compound 26, 2,4-Dichloro-N-[4-dimethylamino-5-(naphthalen-2-ylsulfanyl) -pyrimidin-2-yl]-benzenesulfonamide] | < 30000 |
| Cc1cc(S(=O)(=O)Nc2ccc(Sc3ccc(S(=O)(=O)N4CCCCC4)cc3)c(C)n2)c(Cl)cc1Cl [Compound 61, 2,4-Dichloro-5-methyl-N-{6-methyl-5-[4-(piperidine-1-sulfonyl)-phenylsulfanyl]-pyridin-2-yl}-benzenesulfonamide] | < 1000 |
| CON(C)C(=O)c1nc(NS(=O)(=O)c2ccc(Cl)cc2Cl)ccc1Sc1ccc(S(=O)(=O)N2CCCCC2)cc1 [Compound 72, 6-(2,4-Dichloro-benzenesulfonylamino)-3-[4-(piperidine-1-sulfonyl)-phenylsulfanyl]-pyridine-2-carboxylic acid methoxy-methyl-amide] | < 1000 |
| Cc1nc(NS(=O)(=O)c2ccc(C(F)(F)F)cc2Cl)ncc1Oc1ccc(S(=O)(=O)N2CCOCC2)cc1 [Compound 55, 2-Chloro-N-{4-methyl-5-[4-(morpholine-4-sulfonyl) -phenoxy]-pyrimidin-2-yl}-4-trifluoromethyl-benzenesulfonamide] | < 10000 |
| O=C(c1nc(NS(=O)(=O)c2ccc(Cl)cc2Cl)ccc1Sc1ccc(S(=O)(=O)N2CCCCC2)cc1)C1CC1 [Compound 82, 2,4-Dichloro-N-{6-cyclopropanecarbonyl-5-[4-(piperidine-1-sulfonyl)-phenylsulfanyl]-pyridin-2-yl}-benzenesulfonamide] | < 1000 |
| CCCOc1nc(NS(=O)(=O)c2ccc(Cl)cc2)ncc1Oc1ccc(S(=O)(=O)N2CCOCC2)cc1 [Compound 29, 4-Chloro-N-{5-[4-(morpholine-4-sulfonyl)-phenoxy]-4-propoxy-pyrimidin-2-yl}-benzenesulfonamide] | < 10000 |
| COC(=O)c1nc(NS(=O)(=O)c2ccc(Cl)cc2Cl)ccc1Sc1ccc(S(=O)(=O)N2CCCCC2)cc1 [Compound 70, 6-(2,4-Dichloro-benzenesulfonylamino)-3-[4-(piperidine-1-sulfonyl)-phenylsulfanyl]-pyridine-2-carboxylic acid methyl ester] | < 1000 |
| Cc1nc(NS(=O)(=O)c2ccc(Cl)cc2Cl)ccc1Sc1ccc(S(=O)(=O)N2CCOCC2)cc1 [Compound 77, 2,4-Dichloro-N-{6-methyl-5-[4-(morpholine-4-sulfonyl) -phenylsulfanyl]-pyridin-2-yl}-benzenesulfonamide] | < 1000 |
| O=S(=O)(Nc1ccc(Sc2ccc(S(=O)(=O)N3CCCCC3)cc2)cn1)c1ccc(C(F)(F)F)cc1Cl [Compound 69, 2-Chloro-N-{5-[4-(piperidine-1-sulfonyl)-phenylsulfanyl]-pyridin-2-yl}-4-trifluoromethyl-benzenesulfonamide] | < 1000 |
| CCCCc1nc(NS(=O)(=O)c2ccc(Cl)cc2Cl)ncc1Sc1ccc(S(=O)(=O)N2CCCCC2)cc1 [Compound 43, N-{4-Butyl-5-[4-(piperidine-1-sulfonyl)-phenylsulfanyl]-pyrimidin-2-yl}-2,4-dichloro-benzenesulfonamide] | < 1000 |
| CC(C)Nc1nc(NS(=O)(=O)c2ccc(Cl)cc2Cl)ncc1Sc1ccc(S(=O)(=O)N2CCCCC2)cc1 [Compound 17, 2,4-Dichloro-N-{4-isopropylamino-5-[4-(piperidine-1-sulfonyl)-phenylsulfanyl]-pyrimidin-2-yl}-benzenesulfonamide] | < 10000 |
| CC(C)CC(=O)c1nc(NS(=O)(=O)c2ccc(Cl)cc2Cl)ccc1Sc1ccc(S(=O)(=O)N2CCCCC2)cc1 [Compound 83, 2,4-Dichloro-N-{6-(3-methyl-butyryl)-5-[4-(piperidine-1-sulfonyl)-phenylsulfanyl]-pyridin-2-yl}-benzenesulfonamide] | < 1000 |

Further lines, results first:

| IC50 [nM] | SMILES |
| --- | --- |
| < 1000 | CCCCc1nc(NS(=O)(=O)c2ccc(Cl)cc2Cl)ccc1Sc1ccc(S(=O)(=O)N2CCOCC2)cc1 [Compound 124, N-{6-Butyl-5-[4-(morpholine-4-sulfonyl)-phenylsulfanyl]-pyridin-2-yl}-2,4-dichloro-benzenesulfonamide] |
| < 1000 | Cc1nc(NS(=O)(=O)c2ccc(C(F)(F)F)cc2Cl)ccc1Sc1ccc(S(=O)(=O)N2CCOCC2)cc1 [Compound 103, 2-Chloro-N-{6-methyl-5-[4-(morpholine-4-sulfonyl) -phenylsulfanyl]-pyridin-2-yl}-4-trifluoromethyl-benzenesulfonamide] |
| < 1000 | CCC(=O)c1nc(NS(=O)(=O)c2ccc(Cl)cc2Cl)ccc1Sc1ccc(S(=O)(=O)N2CCCCC2)cc1 [Compound 84, 2,4-Dichloro-N-{5-[4-(piperidine-1-sulfonyl)-phenylsulfanyl]-6-propionyl-pyridin-2-yl}-benzenesulfonamide] |
| < 1000 | CCCC(=O)c1nc(NS(=O)(=O)c2ccc(C(F)(F)F)cc2Cl)ccc1Sc1ccc(S(=O)(=O)C(CC)CC)cc1 [Compound 116, N-{6-Butyryl-5-[4-(pentane-3-sulfonyl)-phenylsulfanyl]-pyridin-2-yl}-2-chloro-4-trifluoromethyl-benzenesulfonamide] |
| < 1000 | CCCCc1nc(NS(=O)(=O)c2ccc(C(F)(F)F)cc2Cl)ccc1Sc1ccc(S(=O)(=O)N2CCCCC2)cc1 [Compound 123, N-{6-Butyl-5-[4-(piperidine-1-sulfonyl)-phenylsulfanyl]-pyridin-2-yl}-2-chloro-4-trifluoromethyl-benzenesulfonamide] |
| < 1000 | CCCC(=O)c1nc(NS(=O)(=O)c2ccc(Cl)cc2Cl)ccc1Sc1ccc(S(=O)(=O)N2CCCC2)cc1 [Compound 94, N-{6-Butyryl-5-[4-(pyrrolidine-1-sulfonyl)-phenylsulfanyl]-pyridin-2-yl}-2,4-dichloro-benzenesulfonamide] |
| < 10000 | CCc1nc(NS(=O)(=O)c2ccc(C(F)(F)F)cc2Cl)ccc1Sc1ccc(S(=O)(=O)N2CCOCC2)cc1 [Compound 105, 2-Chloro-N-{6-ethyl-5-[4-(morpholine-4-sulfonyl) -phenylsulfanyl]-pyridin-2-yl}-4-trifluoromethyl-benzenesulfonamide] |
| < 1000 | CCCC(=O)c1nc(NS(=O)(=O)c2ccc(C(F)(F)F)cc2Cl)ccc1Sc1ccc(S(=O)(=O)N(CC)CC)cc1 [Compound 99, N-[6-Butyryl-5-(4-diethylsulfamoyl-phenylsulfanyl)-pyridin-2-yl]-2-chloro-4-trifluoromethyl-benzenesulfonamide] |
| < 1000 | CCC(=O)c1nc(NS(=O)(=O)c2ccc(Cl)cc2Cl)ccc1Sc1ccc(S(=O)(=O)N2CCCC2)cc1 [Compound 96, 2,4-Dichloro-N-{6-propionyl-5-[4-(pyrrolidine-1-sulfonyl) -phenylsulfanyl]-pyridin-2-yl}-benzenesulfonamide] |
| < 1000 | O=C(c1nc(NS(=O)(=O)c2ccc(Cl)cc2Cl)ccc1Sc1ccc(S(=O)(=O)C2CCCC2)cc1)C1CC1 [Compound 113, 2,4-Dichloro-N-[5-(4-cyclopentanesulfonyl-phenylsulfanyl)-6-cyclopropanecarbonyl-pyridin-2-yl]-benzenesulfonamide] |
| < 1000 | Cc1cc(S(=O)(=O)Nc2nnc(Sc3ccc(S(=O)(=O)N4CCCCC4)cc3)cc2C)c(Cl)cc1Cl [Compound 139, 2,4-Dichloro-5-methyl-N -{4-methyl-6-[4-(piperidine-1-sulfonyl)-phenylsulfanyl]-pyridazin-3-yl}-benzenesulfonamide] |
| < 10000 | CC(C)c1cc(NS(=O)(=O)c2ccc(C(F)(F)F)cc2Cl)nnc1Sc1ccc(S(=O)(=O)N2CCOCC2)cc1 [Compound 135, 3-(2′-chloro-4′-trifluoromethyl)phenylsulfonylamino-5-iso-propyl-6-(4″-N-morpholinesulfonyl)phenylthiopyridazine] |
| < 10000 | CCC(CC)S(=O)(=O)c1ccc(Sc2ccc(NS(=O)(=O)c3ccc(C(F)(F)F)cc3Cl)nc2C(=O)C2CC2)cc1 [Compound 117, 2-Chloro-N-{6-cyclopropanecarbonyl-5-[4-(pentane-3-sulfonyl)-phenylsulfanyl]-pyridin-2-yl}-4-trifluoromethyl-benzenesulfonamide] |
| < 1000 | O=C(c1nc(NS(=O)(=O)c2ccc(C(F)(F)F)cc2Cl)ccc1Sc1ccc(S(=O)(=O)C2CCOCC2)cc1)C1CC1 [Compound 102, 2-Chloro-N-{6-cyclopropanecarbonyl-5-[4-(tetrahydro-pyran-4-sulfonyl)-phenylsulfanyl]-pyridin-2-yl}-4-trifluoromethyl-benzenesulfonamide] |
